Reference: patent US5968526A, “T cell epitopes of the major allergens from Dermatophagoides (house dust mite)” (Immulogic Pharamaceutical Corporation, priority 1995, dated 1999)

Tested on: T cell lines primed in vitro to Der p I
Experiment: secondary proliferation of Der p I-primed T cell lines (Examples V, VII, XI)
Format: cell-based, human
Details: for T cell reactivity: overlapping Der p I peptides
Outline: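 PBMC were primed with native or recombinant Der p I (10 or 20 μg/ml) for 7 days, then expanded with IL-2 and IL-4. Resting T cells (2×10^4) were cultured 3 days with irradiated autologous EBV-B cells or PBMC and titrated protein or peptides, then pulsed 16 h with 1 μCi ³H-thymidine. S.I. was peak-response CPM over medium-only CPM, with S.I. ≥2.0 scored positive.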

For “DF I-22.2: VAATESAYLAYRNTSLDLSEQELVD, amino acid residues 40-64 of Der f I”, the “T cell response to selected Der f I peptides” value (Der p I primed, 30 positive experiments, FIG. 15a) was “respond significantly”.

In the case of “DP I-1: Der p I peptide, amino acid residues 1-20 (TNACSINGNAPAEIDLRQMR)”, the “percent of positive responses (S.I. of at least 2)” value (33 patients) is reported as 73% and the T cell reactivity (33 positive experiments) is reported as “significant regions of T cell reactivity”.

In the case of “DP I-3: Der p I peptide (TVTPIRMQGGCGSCWAFSGVAATESAYLA)”, the T cell reactivity (33 positive experiments) is reported as “significant regions of T cell reactivity”.

In the case of “DP I-21.2: Der p I peptide; unique peptide (SINGNAPAEIDLRQMRTVTPIRMQ)”, the “T cell response to selected Der p I peptides” value (33 positive experiments, FIG. 13) is reported as “respond significantly” and the “positivity index (P.I.)” value (mean S.I. × percent responders, 33 patients) is reported as “at least 150”.
